Measurements reported in US5912227A, “Method of enhancing nutrient uptake” (North Carolina State University, priority 1995, dated 1999).

B1: recombinant bovine growth hormone: recombinant bovine growth hormone injected in sheep (cited Ph.D. thesis) (protein, UniProt P01246 27-217, looked up)
Somatotropin: AFPAMSLSGLFANAVLRAQHLHQLAADTFKEFERTYIPEGQRYSIQNTQVAFCFSETIPAPTGKNEAQQKSDLELLRISLLLIQSWLGPLQFLSRVFTNSLVFGTSDRVYEKLKDLEEGILALMRELEDGTPRAGQILKQTYDKFDTNMRSDDALLKNYGLLSCFRKDLHKTETYLRVMKCRRFGEASCAF

Columns and labels:
[1] = Visceral organ weight of treated mice; type: in vivo, swiss-webster mice
Experimental: (§1) Two month old male swiss-webster mice obtained from Charles River Laboratory were subcutaneously injected in the post-scapula region once a day for three days with one of the following treatments: (1) Saline treatment: 0.25 ml of sterile physiological saline (0.9% saline) (n=9 mice); (2) Peptide YY (PYY) treatment: 300 μg per kilogram body weight of Peptide YY in 0.25 ml sterile physiological saline solution (n=6 mice); (c) Somatostatin treatment: 120 μg per kilogram body weight of somatostatin in 0.25 ml sterile physiological saline solution (n=6 mice); or (4) Transforming Growth Factor alpha (TGFα) treatment: 300 μg per kilogram body weight of TGFα in 0.25 ml sterile physiological saline solution (n=6 mice).
After the treated mice were sacrificed by cervical dislocation as described in Example 2, the visceral organs were dissected out and the liver, stomach, kidneys, colon and caecum of each mouse was weighed. The kidneys of the PYY treatment group were heavier than those of other treatment groups for unknown reasons.

[2] = test system: jejunal oxygen consumption; assay: Jejunal oxygen consumption of treated mice, with and without ouabain; type: in vivo, swiss-webster mice; details: jejunum of treated mice, 37° C.; for Oxygen Consumption, With Ouabain, Dry / Oxygen Consumption, Without Ouabain, Dry: dry tissue; for Oxygen Consumption, With Ouabain, Wet / Oxygen Consumption, Without Ouabain, Wet: wet tissue
Experimental: as §1
Measurement of oxygen consumption rate was determined as described by McBride and Milligan, Br. J. Nutr., 53:605 (1985) for ovine duodenal mucosa, and as described by Bird et al., J. Nutr. 124:231 (1994) for mice jejunum, using an oxygen monitor and an incubation bath fitted with an O2 electrode (Yellow Springs Instruments, Yellow Springs, Ohio, USA). Adjacent jejunal ring samples (two from each mouse jejunum) were prepared by rinsing in ice-cold HEPES transport buffer to remove digesta residues. The rate of O2 uptake of the duplicate jejunal samples, constantly stirred in 4 ml of media at 37° C., was electronically recorded. After 3 minutes, 100 uL of 12.6 mmol/L ouabain (Sigma Chemical), a specific inhibitor of Na+, K+-ATPase, was added to the chamber and oxygen consumption was plotted for 3 minutes. Dry matter content of the tissue pieces was then measured by drying the jejunal samples at 80° C. in a forced draught oven for 48 hours.

[3] = test system: jejunal glucose transport (S-GLT1 transporter); assay: Jejunal glucose transport ([3H]3-O-methyl-D-glucose uptake by jejunal rings of treated mice, with and without phlorizin); type: in vivo, swiss-webster mice; details: for Glucose Transport, Total / Glucose Transport, Active / Glucose Transport, Passive: mid-jejunal rings of treated mice; for Glucose Transport, Total: 37° C. without phlorizin minus 4° C. with phlorizin; for Glucose Transport, Active: difference of 3OMG accumulation with and without phlorizin, 37° C.; for Glucose Transport, Passive: with phlorizin, 37° C. minus 4° C.
Experimental: as §1
A sample of mid-jejunal tissue was dissected out of each of the small intestines removed in Example 2. As described below, each glucose transport assay was replicated three times per mouse, and an assay to measure non-specific binding was replicated twice per mouse. Thus each mid-jejunal sample (one from each mouse) was cut into eight one millimeter rings.
The assay for glucose transport was a modification of the assay validated by Black, Comp. Biochem Physiol. 90A:379 (1988) to measure glucose transport in embryonic chick duodenum. Additional details of the present method as modified for mouse intestine are discussed in Bird et al., J. Nutr. 124:231 (1994), and the method is validated for mice in Bird et al., Nutr. Research, 14:411 […]. The transport buffer utilized for jejunal samples was similar to that described by Black (1988) but also contained 0.5 mmol/L 3-O-methyl-D-glucose (3 OMG), 0.5 mmol/L B-hydroxybutyrate, and 2.5 mmol/L glutamine. The assay was started by transferring intestinal rings preincubated at 37° C. for 5 minutes in transport buffer to beakers containing 28 MBq/L of [^3 H]3 OMG in 2 ml of buffer. To differentiate active from passive transport, phlorizin (phloretin-2'-β-D-glucoside; Sigma Chemicals, St. Louis, Mo.) was utilized. Phlorizin is a specific inhibitor of the S-GLT1 transporter (a sodium dependent active transporter) located on the luminal surface of absorptive epithelium (see Brot-Laroche and Alvarado, Mechanisms of sugar transport across the intestinal brush border membrane, IN: Intestinal Transport: Fundamental and Comparative Aspects, Gilles-Baillin and Gilles (Eds.), Springer-Verlag, Berlin (1983)). The S-GLT1 transporter is one of a family of transporter proteins, and actively transports glucose.
Uptake of [^3 H]3 OMG was stopped after 5 minutes by rinsing samples in 3 ml of ice-cold mannitol (300 mmol/L). Labelled substrate was extracted from the tissue into 2 mL of trichloroacetic acid (25 g/L) at 37° C. for 60 minutes in a shaking water bath. Samples were removed, blotted and weighed. The extract was centrifuged at 2000×g for 15 minutes at 4° C., and then 1 ml of the decanted supernatant was dispersed in 5 ml of Ecolite (+) scintillation cocktail (ICN Biomedicals, Cleveland, Ohio) and counted for 10 minutes in a scintillation counter. Duplicate aliquots (100 uL) of incubation media containing approximately 2.8 kBq [^3 H]3 OMG (both with and without phlorizin) and a blank were counted with each set of samples.
Active glucose transport was calculated as the difference between 3 OMG accumulation in media with and without phlorizin. Passive transport was calculated as the difference between 3 OMG accumulation in the presence of phlorizin at 37° C. and 4° C. Total transport is the difference between 3 OMG accumulation at 37° C., in the absence of phlorizin, and accumulation at 4° C. in the presence of phlorizin. Transport data are presented as pmol glucose/(min-mg wet tissue). Fasting body weight of the mice was used to express data on a body weight basis.

[4] = test system: Na-dependent active glucose uptake; assay: Energetic efficiency of Na-dependent active glucose uptake; type: in vivo, swiss-webster mice; details: compared with saline control; 1 nmol O2 assumed = 5 nmol ATP; FIG. 1
Experimental: The energetic efficiency of Na-dependent active glucose uptake in the PYY treated mice and the saline control treated mice was calculated, assuming that consumption of 1 nmol of O2 (as measured in Example 5, above) indicated expenditure of 5 nmol of ATP (Gill et al., J. Nutr. 119:1287-1299 (1989).

[5] = test system: water and electrolyte absorption from the small intestine; details: unfed dogs, peripheral infusion; cited from earlier work
[6] = test system: sodium-dependent duodenal active transport; details: sheep injected with recombinant bovine growth hormone; cited from earlier work
[7] = mice, s.c. once a day for three days

Molecule	Oxygen Consumption, With Ouabain, Dry [2] [µL/min/g]	Oxygen Consumption, Without Ouabain, Dry [2] [µL/min/g]	Oxygen Consumption, With Ouabain, Wet [2] [µL/min/g]	Oxygen Consumption, Without Ouabain, Wet [2] [µL/min/g]	Glucose Transport, Total [3] [pmol/min/mg tissue]	Glucose Transport, Active [3] [pmol/min/mg tissue]	Glucose Transport, Passive [3] [pmol/min/mg tissue]	Organ Weight, Caecum ([1]; mouse, in vivo, sc) [mg]	Organ Weight, Colon ([1]; mouse, in vivo, sc) [mg]	Organ Weight, Kidneys ([1]; mouse, in vivo, sc) [mg]	Organ Weight, Liver ([1]; mouse, in vivo, sc) [mg]	Organ Weight, Stomach ([1]; mouse, in vivo, sc) [mg]	other results
C[C@H](N)C(=O)NCC(=O)N[C@H]1CSSC[C@@H](C(=O)O)NC(=O)[C@H](CO)NC(=O)[C@H]([C@@H](C)O)NC(=O)[C@H](Cc2ccccc2)NC(=O)[C@H]([C@@H](C)O)NC(=O)[C@H](CCCCN)NC(=O)[C@H](Cc2c[nH]c3ccccc23)NC(=O)[C@H](Cc2ccccc2)NC(=O)[C@H](Cc2ccccc2)NC(=O)[C@H](CC(N)=O)NC(=O)[C@H](CCCCN)NC1=O [Somatostatin, somatostatin]	181.29	224.77	35.13	43.62	371	303	67	–	–	–	–	–	Organ Weight, Caecum [1, 7]: 156 mg; Organ Weight, Colon [1, 7]: 316 mg; Organ Weight, Kidneys [1, 7]: 534 mg; Organ Weight, Liver [1, 7]: 1441 mg; Organ Weight, Stomach [1, 7]: 232 mg
PYY: 36 amino acid hormonal peptide, produced by "L type" endocrine cells; member of the pancreatic polypeptide family [Peptide YY]	194.22	253.93	36.54	47.71	431	369	63	134	315	468	1274	230	metabolic cost of total glucose uptake (total nmol ATP expended per nmol of 3OMG uptake) [4]: less; water and electrolyte absorption from the small intestine [5]: dose-dependent increase; increase in active glucose transport expressed per unit of body weight (Table 2 footnote) ([3]; compared to saline control): 46; increase in active glucose transport expressed per unit of fasting body weight ([3]; compared to the saline control group): 46%; active glucose transport, comparison with saline control group ([3]; per milligram of intestinal tissue): statistically significant increase
Transforming Growth Factor alpha [TGFα]	179.01	238.76	36.03	47.96	410	347	64	156	379	522	1442	243	–
B1	–	–	–	–	–	–	–	–	–	–	–	–	increase of sodium-dependent duodenal active transport of glucose [6]: approximately 60%; increase of transport of proline [6]: approximately 30%
